# Laboratory results from patent US20260262643A1, “HERBICIDAL BENZOXAZINES” (FMC CORPORATION, priority 2022, published 2026).
# How the values were obtained:
# [1] = test system: oat, wild; test: Test C postemergence; assay type: in vivo, Avena fatua; settings: 10 days
# How it was run: (§1)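 Seeds in loam–sand blend received preemergence directed soil spray of test chemicals in non-phytotoxic solvent with surfactant; postemergence treatment was applied at one- to two-leaf stage (2–10 cm). After 10 days in greenhouse, injury rated visually versus untreated controls, 0 (no effect) to 100 (complete control).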
# [2] = test system: soybean; test: Test C postemergence; assay type: in vivo, Glycine max; settings: 10 days
# How it was run: as §1
# [3] = test system: ryegrass, Italian; test: Test C preemergence; assay type: in vivo, Lolium multiflorum; settings: preemergence, 0 to 100 scale (0 no effect, 100 complete control)
# How it was run: as §1
# [4] = test system: corn; test: Test C postemergence; assay type: in vivo, Zea mays; settings: 10 days
# How it was run: as §1
# [5] = test system: soybean; test: Test C preemergence; assay type: in vivo, Glycine max; settings: 0 to 100 scale (0 no effect, 100 complete control); for Soybean plant response rating: preemergence
# How it was run: as §1
# [6] = test system: horseweed; test: Test C postemergence; assay type: in vivo, Erigeron canadensis; settings: 10 days
# How it was run: as §1
# [7] = test system: rice; test: Test D flooded paddy test; assay type: in vivo, Oryza sativa; settings: 250 g ai/ha, applied to paddy water, visual rating after 13 to 14 days, scale 0 to 100 (0 no effect, 100 complete control)
# How it was run: (§2)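 Plants at the 2-leaf stage were grown in pots flooded to 3 cm, and compound was applied directly into the paddy water, with depth kept throughout. After 13–14 days in a greenhouse, injury was rated visually against untreated controls on a 0–100 scale (100 = complete control); a dash means not tested.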
# [8] = test system: blackgrass; test: Test C preemergence; assay type: in vivo, Alopecurus myosuroides; settings: 0 to 100 scale (0 no effect, 100 complete control); for Blackgrass plant response rating: preemergence
# How it was run: as §1
# [9] = test system: pigweed, palmer; test: Test C preemergence; assay type: in vivo, Amaranthus palmeri; settings: 0 to 100 scale (0 no effect, 100 complete control); for Pigweed, Palmer plant response rating: preemergence
# How it was run: as §1
# [10] = test system: oat, wild; test: Test C preemergence; assay type: in vivo, Avena fatua; settings: 0 to 100 scale (0 no effect, 100 complete control); for Oat, Wild plant response rating: preemergence
# How it was run: as §1
# [11] = test system: corn; test: Test C preemergence; assay type: in vivo, Zea mays; settings: 0 to 100 scale (0 no effect, 100 complete control); for Corn plant response rating: preemergence
# How it was run: as §1
# [12] = test system: galium; test: Test C postemergence; assay type: in vivo, Galium aparine; settings: 10 days
# How it was run: as §1
# [13] = test system: ducksalad; test: Test D flooded paddy test; assay type: in vivo, Heteranthera limosa; settings: 250 g ai/ha, applied to paddy water, visual rating after 13 to 14 days, scale 0 to 100 (0 no effect, 100 complete control)
# How it was run: as §2
# [14] = test system: ryegrass, Italian; test: Test C postemergence; assay type: in vivo, Lolium multiflorum; settings: 10 days
# How it was run: as §1
# [15] = test system: barnyardgrass; test: Test C postemergence; assay type: in vivo, Echinochloa crusgalli; settings: 10 days
# How it was run: as §1
# [16] = test system: barnyardgrass; test: Test D flooded paddy test; assay type: in vivo, Echinochloa crus-galli; settings: 250 g ai/ha, applied to paddy water, visual rating after 13 to 14 days, scale 0 to 100 (0 no effect, 100 complete control)
# How it was run: as §2
# [17] = test system: wheat; test: Test C postemergence; assay type: in vivo, Triticum aestivum; settings: 10 days
# How it was run: as §1
# [18] = test system: barnyardgrass; test: Test C preemergence; assay type: in vivo, Echinochloa crusgalli; settings: 0 to 100 scale (0 no effect, 100 complete control); for Barnyardgrass plant response rating: preemergence
# How it was run: as §1
# [19] = test system: pigweed, palmer; test: Test C postemergence; assay type: in vivo, Amaranthus palmeri; settings: 10 days
# How it was run: as §1
# [20] = test system: green foxtail; test: Test C preemergence; assay type: in vivo, Setaria viridis; settings: 0 to 100 scale (0 no effect, 100 complete control); for Foxtail, Green plant response rating: preemergence
# How it was run: as §1
# [21] = test system: green foxtail; test: Test C postemergence; assay type: in vivo, Setaria viridis; settings: 10 days
# How it was run: as §1
# [22] = test system: kochia; test: Test C preemergence; assay type: in vivo, Bassia scoparia; settings: 0 to 100 scale (0 no effect, 100 complete control); for Kochia plant response rating: preemergence
# How it was run: as §1
# [23] = test system: sedge, umbrella; test: Test D flooded paddy test; assay type: in vivo, Cyperus difformis; settings: 250 g ai/ha, applied to paddy water, visual rating after 13 to 14 days, scale 0 to 100 (0 no effect, 100 complete control)
# How it was run: as §2
# [24] = test system: wheat; test: Test C preemergence; assay type: in vivo, Triticum aestivum; settings: 0 to 100 scale (0 no effect, 100 complete control); for Wheat plant response rating: preemergence
# How it was run: as §1
# [25] = test system: kochia; test: Test C postemergence; assay type: in vivo, Bassia scoparia; settings: 10 days
# How it was run: as §1
# [26] = test system: blackgrass; test: Test C postemergence; assay type: in vivo, Alopecurus myosuroides; settings: 10 days
# How it was run: as §1
# [27] = test system: ragweed; test: Test C postemergence; assay type: in vivo, Ambrosia artemisiifolia; settings: 10 days
# How it was run: as §1
# [28] = test system: ragweed; test: Test C preemergence; assay type: in vivo, Ambrosia artemisiifolia; settings: 0 to 100 scale (0 no effect, 100 complete control)
# How it was run: as §1
# [29] = 500 g ai/ha, postemergence, 0 to 100 scale (0 no effect, 100 complete control)
# [30] = Postemergence, 125 g ai/ha, 0 to 100 scale (0 no effect, 100 complete control)
# [31] = 125 g ai/ha, postemergence, 0 to 100 scale, 0 no effect, 100 complete control
# [32] = Postemergence, 500 g ai/ha, visual 0 to 100 scale (0 no effect, 100 complete control)
# [33] = Preemergence, 500 g ai/ha, visual rating after 10 days
structure (smiles),measurement,setting,value
"Cc1cccc2c1OC(C(F)(F)F)CN2C(=O)c1cccc(-n2cnc(C(C)C)n2)c1 (single isomer, unassigned) [Compound 302]","Plant response rating, Oat, Wild",[1]; [29],10
same,"Plant response rating, Oat, Wild",[1]; [30],0
same,"Plant response rating, Soybean",[2]; [29],90
same,"Plant response rating, Soybean",[2]; [30],80
same,"Ryegrass, Italian plant response rating",[3]; 500 g ai/ha,100
same,"Ryegrass, Italian plant response rating","[3]; Test C, 125 g ai/ha",80
same,"Plant response rating, Corn",[4]; [29],10
same,"Plant response rating, Corn",[4]; [30],10
same,Soybean plant response rating,[5]; 500 g ai/ha,20
same,Soybean plant response rating,"[5]; Test C, 125 g ai/ha",10
same,"Plant response rating, Horseweed",[6]; [29],50
same,"Plant response rating, Horseweed",[6]; [30],60
same,"Plant response rating, Rice (Flood)",[7],0
same,Blackgrass plant response rating,[8]; 500 g ai/ha,60
same,Blackgrass plant response rating,"[8]; Test C, 125 g ai/ha",30
same,"Pigweed, Palmer plant response rating",[9]; 500 g ai/ha,80
same,"Pigweed, Palmer plant response rating","[9]; Test C, 125 g ai/ha",70
same,"Oat, Wild plant response rating",[10]; 500 g ai/ha,80
same,"Oat, Wild plant response rating","[10]; Test C, 125 g ai/ha",0
same,Corn plant response rating,[11]; 500 g ai/ha,0
same,"Plant response rating, Galium",[12]; [29],90
same,"Plant response rating, Ducksalad (Flood)",[13],0
same,"Plant response rating, Ryegrass, Italian",[14]; [29],50
same,"Plant response rating, Ryegrass, Italian",[14]; [30],0
same,"Plant response rating, Barnyardgrass",[15]; [29],10
same,"Plant response rating, Barnyardgrass",[15]; [30],10
same,"Plant response rating, Barnyardgrass (Flood)",[16],0
same,"Plant response rating, Wheat",[17]; [29],10
same,"Plant response rating, Wheat",[17]; [30],10
same,Barnyardgrass plant response rating,[18]; 500 g ai/ha,50
same,Barnyardgrass plant response rating,"[18]; Test C, 125 g ai/ha",0
same,"Plant response rating, Pigweed, Palmer",[19]; [29],20
same,"Plant response rating, Pigweed, Palmer",[19]; [30],10
same,"Foxtail, Green plant response rating",[20]; 500 g ai/ha,80
same,"Foxtail, Green plant response rating","[20]; Test C, 125 g ai/ha",20
same,"Plant response rating, Foxtail, Green",[21]; [29],10
same,"Plant response rating, Foxtail, Green",[21]; [30],0
same,Kochia plant response rating,[22]; 500 g ai/ha,80
same,Kochia plant response rating,"[22]; Test C, 125 g ai/ha",0
same,"Plant response rating, Sedge, Umbrella (Flood)",[23],0
same,Wheat plant response rating,[24]; 500 g ai/ha,40
same,Wheat plant response rating,"[24]; Test C, 125 g ai/ha",20
same,"Plant response rating, Kochia",[25]; [29],70
same,"Plant response rating, Kochia",[25]; [30],20
same,"Plant response rating, Blackgrass",[26]; [29],30
same,"Plant response rating, Blackgrass",[26]; [30],0
same,"Plant response rating, Ragweed",[27]; [29],20
same,"Plant response rating, Ragweed",[27]; [30],20
CSCc1ncn(-c2ccc(C)c(C(=O)N3C[C@H](C)Oc4c(Cl)cccc43)c2)n1 [Compound 178],"Plant response rating, Oat, Wild",[1]; [31],30
same,"Plant response rating, Oat, Wild",[1]; [32],90
same,"Plant response rating, Soybean",[2]; [31],100
same,"Plant response rating, Soybean",[2]; [32],100
same,"Plant response rating, Corn",[4]; [31],60
same,"Plant response rating, Corn",[4]; [32],90
same,"Plant response rating, Soybean",[5]; [33],80
same,Soybean plant response rating,"[5]; Test C, 125 g ai/ha",60
same,"Plant response rating, Horseweed",[6]; [31],70
same,"Plant response rating, Horseweed",[6]; [32],90
same,"Plant response rating, Rice (Flood)",[7],15
same,"Plant response rating, Blackgrass",[8]; [33],90
same,Blackgrass plant response rating,"[8]; Test C, 125 g ai/ha",60
same,"Plant response rating, Pigweed, Palmer",[9]; [33],100
same,"Pigweed, Palmer plant response rating","[9]; Test C, 125 g ai/ha",90
same,"Plant response rating, Oat, Wild",[10]; [33],90
same,"Oat, Wild plant response rating","[10]; Test C, 125 g ai/ha",30
same,"Plant response rating, Corn",[11]; [33],50
same,Corn plant response rating,"[11]; Test C, 125 g ai/ha",20
same,"Plant response rating, Galium",[12]; [31],100
same,"Plant response rating, Galium",[12]; [32],100
same,"Plant response rating, Ducksalad (Flood)",[13],95
same,"Plant response rating, Ryegrass, Italian",[14]; [31],80
same,"Plant response rating, Ryegrass, Italian",[14]; [32],100
same,"Plant response rating, Barnyardgrass",[15]; [31],10
same,"Plant response rating, Barnyardgrass",[15]; [32],60
same,"Plant response rating, Barnyardgrass (Flood)",[16],15
same,"Plant response rating, Wheat",[17]; [31],20
same,"Plant response rating, Wheat",[17]; [32],50
same,"Plant response rating, Barnyardgrass",[18]; [33],90
same,Barnyardgrass plant response rating,"[18]; Test C, 125 g ai/ha",20
same,"Plant response rating, Pigweed, Palmer",[19]; [31],90
same,"Plant response rating, Pigweed, Palmer",[19]; [32],90
same,"Plant response rating, Foxtail, Green",[20]; [33],100
same,"Foxtail, Green plant response rating","[20]; Test C, 125 g ai/ha",100
same,"Plant response rating, Foxtail, Green",[21]; [31],20
same,"Plant response rating, Foxtail, Green",[21]; [32],90
same,"Plant response rating, Kochia",[22]; [33],100
same,Kochia plant response rating,"[22]; Test C, 125 g ai/ha",90
same,"Plant response rating, Ragweed",[28]; [33],50
same,Ragweed plant response rating,"[28]; Test C, preemergence, 125 g ai/ha",0
same,"Plant response rating, Sedge, Umbrella (Flood)",[23],90
same,"Plant response rating, Wheat",[24]; [33],70
same,Wheat plant response rating,"[24]; Test C, 125 g ai/ha",30
same,"Plant response rating, Kochia",[25]; [31],80
same,"Plant response rating, Kochia",[25]; [32],90
same,"Plant response rating, Blackgrass",[26]; [31],60
same,"Plant response rating, Blackgrass",[26]; [32],90
same,"Plant response rating, Ragweed",[27]; [31],60
same,"Plant response rating, Ragweed",[27]; [32],90
